Experimental data as given in ChEMBL document CHEMBL1201862, “PubChem BioAssay data set” (2004).
Activity calls are given as the source filed them.

What was measured:
[1] = molecular target: T1, ORF 73 (Human herpesvirus 8, UniProt O40947); assay: inhibitors of C-LANA binding to LBS DNA, dose response, biochemical, fluorescence polarization, cherry-picked samples (AID 504725); parameters: species or system Human gammaherpesvirus 8;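 further: fluorescence polarization of a labeled DNA duplex reporting LANA DNA binding; potency is for inhibitors that block LANA binding to the DNA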
T1 sequence (O40947 whole entry): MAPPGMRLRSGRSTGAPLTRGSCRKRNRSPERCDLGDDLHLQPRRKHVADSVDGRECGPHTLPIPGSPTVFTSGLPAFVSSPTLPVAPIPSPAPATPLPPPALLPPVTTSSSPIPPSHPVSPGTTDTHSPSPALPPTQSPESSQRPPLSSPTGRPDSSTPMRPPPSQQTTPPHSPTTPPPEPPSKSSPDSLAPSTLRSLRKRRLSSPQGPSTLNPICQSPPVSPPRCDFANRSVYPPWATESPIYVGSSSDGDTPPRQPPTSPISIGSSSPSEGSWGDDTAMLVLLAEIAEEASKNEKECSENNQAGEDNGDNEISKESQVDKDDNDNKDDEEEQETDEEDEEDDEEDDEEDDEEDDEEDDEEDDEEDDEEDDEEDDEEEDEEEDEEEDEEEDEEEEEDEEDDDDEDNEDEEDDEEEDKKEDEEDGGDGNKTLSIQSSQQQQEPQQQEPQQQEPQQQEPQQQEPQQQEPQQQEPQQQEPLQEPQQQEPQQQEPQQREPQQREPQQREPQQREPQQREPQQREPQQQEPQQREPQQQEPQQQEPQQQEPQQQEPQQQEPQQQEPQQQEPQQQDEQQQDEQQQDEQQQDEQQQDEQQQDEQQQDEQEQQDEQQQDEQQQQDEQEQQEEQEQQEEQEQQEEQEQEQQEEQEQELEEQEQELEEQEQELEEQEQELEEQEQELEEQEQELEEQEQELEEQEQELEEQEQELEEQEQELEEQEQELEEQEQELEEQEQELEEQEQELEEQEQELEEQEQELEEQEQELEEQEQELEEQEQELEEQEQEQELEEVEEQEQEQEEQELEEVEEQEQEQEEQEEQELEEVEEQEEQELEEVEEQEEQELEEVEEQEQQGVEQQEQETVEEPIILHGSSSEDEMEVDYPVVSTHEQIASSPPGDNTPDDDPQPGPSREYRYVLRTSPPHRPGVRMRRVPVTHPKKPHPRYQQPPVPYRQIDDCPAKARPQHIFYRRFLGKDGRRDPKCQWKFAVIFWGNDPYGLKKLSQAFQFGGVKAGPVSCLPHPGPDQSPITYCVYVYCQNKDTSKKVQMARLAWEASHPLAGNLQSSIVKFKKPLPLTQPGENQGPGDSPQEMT

[2] = molecular target: T2, Zinc finger protein mex-5 (Caenorhabditis elegans, UniProt Q9XUB2); assay: MEX-5/TCR-2 RNA interaction inhibitors, dose response, biochemical, C. elegans, fluorescence polarization (AID 1960)
T2 sequence (Q9XUB2 whole entry): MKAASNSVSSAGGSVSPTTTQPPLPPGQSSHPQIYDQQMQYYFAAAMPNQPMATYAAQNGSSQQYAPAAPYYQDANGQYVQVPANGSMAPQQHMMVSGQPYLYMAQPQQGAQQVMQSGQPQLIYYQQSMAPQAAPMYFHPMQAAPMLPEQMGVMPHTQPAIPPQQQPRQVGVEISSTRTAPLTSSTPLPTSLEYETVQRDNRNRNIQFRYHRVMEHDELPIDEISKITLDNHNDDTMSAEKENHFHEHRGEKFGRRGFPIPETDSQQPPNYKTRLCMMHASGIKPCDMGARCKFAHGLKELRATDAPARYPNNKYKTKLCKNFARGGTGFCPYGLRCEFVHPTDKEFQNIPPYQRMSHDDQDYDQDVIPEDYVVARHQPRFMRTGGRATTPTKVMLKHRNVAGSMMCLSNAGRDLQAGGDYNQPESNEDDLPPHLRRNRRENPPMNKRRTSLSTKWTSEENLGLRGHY

[3] = molecular target: Troponin, cardiac muscle (Homo sapiens, UniProt P19429+P45379+P63316); assay: inhibitors of cardiac thin filament calcium sensitivity, dose response, biochemical, fluorescence, cardiac regulated thin filaments, triplicate IC50 (AID 504742); type: protein-complex assay
[4] = molecular target: T3, Sentrin-specific protease 8 (Homo sapiens, UniProt Q96LD8); type: functional;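 further: kinetic enzyme assay of SENP8 cleaving a Nedd8 protein substrate, dose-response confirmation of screening hits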
T3 sequence (Q96LD8 whole entry): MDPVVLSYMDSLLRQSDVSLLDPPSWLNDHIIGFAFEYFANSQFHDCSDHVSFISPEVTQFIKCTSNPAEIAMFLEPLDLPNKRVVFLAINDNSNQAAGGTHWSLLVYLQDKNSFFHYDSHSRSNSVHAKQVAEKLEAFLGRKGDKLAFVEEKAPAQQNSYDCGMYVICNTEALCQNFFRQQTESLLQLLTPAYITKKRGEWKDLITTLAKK

[5] = molecular target: T4, DNA repair protein RAD52 homolog (Homo sapiens, UniProt P43351); type: functional, biochemical
T4 sequence (P43351 whole entry): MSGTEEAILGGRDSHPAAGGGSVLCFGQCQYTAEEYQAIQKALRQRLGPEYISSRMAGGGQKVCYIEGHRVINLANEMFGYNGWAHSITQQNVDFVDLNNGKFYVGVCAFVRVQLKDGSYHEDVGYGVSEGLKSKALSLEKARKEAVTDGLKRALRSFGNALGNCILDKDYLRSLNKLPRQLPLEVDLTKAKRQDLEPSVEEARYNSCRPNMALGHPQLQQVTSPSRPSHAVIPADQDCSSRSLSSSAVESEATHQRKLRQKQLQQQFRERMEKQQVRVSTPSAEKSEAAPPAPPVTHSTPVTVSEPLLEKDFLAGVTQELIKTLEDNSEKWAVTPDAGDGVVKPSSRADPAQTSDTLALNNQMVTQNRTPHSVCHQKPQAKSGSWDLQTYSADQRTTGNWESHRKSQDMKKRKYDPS

[6] = molecular target: Nonstructural protein 1 (Influenza A virus, UniProt Q194T2); type: functional, Influenza A virus (A/California/07/2009(H1N1))
Nonstructural protein 1, sequence (Q194T2 whole entry): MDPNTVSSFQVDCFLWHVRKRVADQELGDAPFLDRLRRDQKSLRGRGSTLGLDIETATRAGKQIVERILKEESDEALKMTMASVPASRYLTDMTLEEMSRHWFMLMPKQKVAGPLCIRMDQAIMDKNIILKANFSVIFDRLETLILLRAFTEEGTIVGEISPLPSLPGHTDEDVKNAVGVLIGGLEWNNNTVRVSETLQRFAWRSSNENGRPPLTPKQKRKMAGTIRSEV

[7] = growth suppression of beta-catenin-knockout colon cells, dose response, cell-based, HCT116, human colon tumor (AID 1045); type: functional;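 further: HCT116 colon tumor cells with beta catenin knocked out; cells exposed to compound for 60 hours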
[8] = molecular target: T5, Caspase-7 (Homo sapiens, UniProt P55210); assay: human caspase-7 inhibitors, dose response, selectivity assay for caspase-6 inhibitor project, biochemical, DEVD-R110 fluorescence, cherry-pick (AID 743295)
T5 sequence (P55210 whole entry): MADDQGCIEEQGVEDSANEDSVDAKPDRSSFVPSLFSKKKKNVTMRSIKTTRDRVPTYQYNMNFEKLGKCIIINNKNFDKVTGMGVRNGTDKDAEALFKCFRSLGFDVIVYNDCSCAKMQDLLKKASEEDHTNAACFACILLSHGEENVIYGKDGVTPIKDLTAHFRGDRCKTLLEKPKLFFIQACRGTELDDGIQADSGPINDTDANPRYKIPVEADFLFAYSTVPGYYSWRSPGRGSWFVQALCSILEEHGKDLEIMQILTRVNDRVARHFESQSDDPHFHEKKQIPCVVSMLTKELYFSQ

O=C(O)c1ccc2c(c1)[C@@H]1C=CC[C@@H]1[C@H](c1ccccn1)N2
AC50 [1]: 21.7 µM (active) | EC50 [2]: 31.1 µM (inconclusive) | IC50 [3]: > 71.5 µM (inactive)

CN(C)c1cc(N/N=C\c2ccccc2)nc(N(C)C)n1
IC50 [4]: 661 nM (active)

CCN(CC)CCOc1ccc2c(c1)C(=NNC(=O)c1ccccn1)c1cc(OCCN(CC)CC)ccc1-2
AC50 [5]: < 150 nM (active) | IC50 [6]: 13.8 µM (active) | EC50 [7]: 2.17 µM (active)

Oc1nc(Nc2ccc(F)cc2)cc2ccccc12
AC50 [8]: 2.11 µM (active)
